Measurements from US11427546B2, “Form of isoquinoline sulfonamide” (D. WESTERN THERAPEUTICS INSTITUTE, INC., priority 2018, dated 2022).
“Also recorded” adds a separate entry of the source. Structures can show the parent of a compound that is named as a salt.

Tests used:
Type in all cases: physicochemical
[1] = Moisture absorption stability comparative test in the ambient atmosphere; details: ambient atmosphere 25° C.-28° C./67%-83% RH; for appearance (moisture absorption): Day 7
Protocol: Moisture Absorption Stability Comparative Test in the Ambient Atmosphere
About 100 mg of each of the compound (1) obtained in Reference Example 1 and the compound (2) of the present invention obtained in an Example was weighed out in a plastic container and allowed to stand in the ambient atmosphere (25° C.-28° C./67%-83% RH), while minimizing the influence of wind pressure, foreign matter entry, and the like from above and all directions, for 7 days. On Day 0 and Day 7, samples were weighed and examined for appearance.

[2] = Heat stability comparative test; details: 70° C., airtight glass vial
Protocol: Heat Stability Comparative Test
About 20 mg of each of the compound (1) of Reference Example 1 and the crystal of the compound (2) of the present invention obtained in an Example was weighed out in a glass vial and stored in a thermostat chamber kept at 70° C. in an airtight state (NA-100N Incubator from NISSIN) for 14 days. On Day 0, Day 7, and Day 14, compound (1) and the compound (2) of the present invention were examined for appearance and purity (HPLC).

[3] = Water solubility comparative test; details: for transparency of aqueous solution by visual observation: about 100 mg in 2 mL purified water (5% aqueous solution), room temperature; for precipitate in aqueous solution: about 100 mg in 2 mL purified water, 1 day later
Protocol: Water Solubility Comparative Test
About 100 mg of each of the compound (1) of Reference Example 1 and the crystal of the compound (2) of the present invention was weighed out in a glass vial, 2 mL of purified water was added, and the mixture was vigorously shaken in an airtight state. After being allowed to stand until the liquid surface fluctuation ceased, the aqueous solution was examined for transparency by visual observation at room temperature.

[4] = Moisture absorption stability comparative test at 50° C./70% RH
Protocol: Moisture Absorption Stability Comparative Test at 50° C./70% RH
A 100-mg weight of each of the crystals of compounds (3) and (4) obtained in Reference Examples 2 and 3, respectively, and the compound (2) of the present invention obtained in an Example was weighed out in a plastic container and allowed to stand under 50° C./70% RH conditions in a thermo-hygrostat chamber (IH400 from Yamato Scientific Co., Ltd.).

Row | appearance (moisture absorption) [1] | precipitate in aqueous solution [3] | change (appearance, weight) after prolonged standing ([4]; after 3 days of standing) | SMILES | appearance / property (heat stability) ([2]; Day 7, monohydrochloride) | transparency of aqueous solution by visual observation ([3]; monohydrochloride) | percent increase in weight ([1]; Day 7, about 100 mg solid) | appearance and purity (HPLC) (heat stability) ([2]; Day 14) | appearance change due to moisture absorption ([4]; after 1 hour of standing) | weight increase ([4]; after 1 hour of standing, 100 mg solid) | transparency of aqueous solution by visual observation [3]
1 | evident moisture absorption phenomenon | a precipitate was found |  | C[C@H](CNC[C@@](C)(O)c1ccccc1)NS(=O)(=O)c1ccc2cnccc2c1.Cl [compound (1), N—[(R)-1-{(S)-2-hydroxy-2-phenylpropylamino}propan-2-yl]isoquinoline-6-sulfonamide monohydrochloride, reference compound] | marked property degradation; also recorded: unstable with an evident change in appearance | translucent; also recorded: translucent and had not dissolved completely |  |  |  |  | 
2 | no weight gain or appearance change | no precipitate was found | no change was observed | C[C@H](CNC[C@@](C)(O)c1ccccc1)NS(=O)(=O)c1ccc2cnccc2c1 [compound (2), N—[(R)-1-{(S)-2-hydroxy-2-phenylpropylamino}propan-2-yl]isoquinoline-6-sulfonamide dihydrochloride anhydride] |  |  | did not at all exhibit any weight change; also recorded: no weight gain | stable, with no change in appearance nor decomposition; also recorded: stable | no appearance change | no appearance change nor weight gain; also recorded: did not at all exhibit any weight change | extremely clear, showing complete dissolution; also recorded: colorless and clear
3 |  |  |  | C[C@H](CNCCc1ccccc1)NS(=O)(=O)c1ccc2cnccc2c1.Cl.Cl [compound (3), (R)—N-{1-(phenetylamino)propan-2-yl}isoquinoline-6-sulfonamide dihydrochloride, reference compound] |  |  |  |  | marked appearance change due to moisture absorption |  | 
4 |  |  |  | C[C@H](CNC[C@H](C)c1ccccc1)NS(=O)(=O)c1ccc2cnccc2c1.Cl.Cl [compound (4), N—[(R)-1-{(R)-2-phenyipropylamino}propan-2-yl]isoquinoline-6-sulfonamide dihydrochloride, reference compound] |  |  |  |  | marked appearance change due to moisture absorption |  | 
